# pIC50: −log10 of the molar value. “And” between values parts separate entries of the source, which are not always exact repeats. Equal values may be shown once. Read-outs that look alike come from different tables or passages of the source.
# Legend:
# [1] = molecular target: T1, PPARγ (Homo sapiens, UniProt P37231); experiment: LanthaScreen TR-FRET PPARγ competitive binding assay
# T1 construct: purchased Invitrogen
# T1 sequence (P37231 204-505 limits assumed): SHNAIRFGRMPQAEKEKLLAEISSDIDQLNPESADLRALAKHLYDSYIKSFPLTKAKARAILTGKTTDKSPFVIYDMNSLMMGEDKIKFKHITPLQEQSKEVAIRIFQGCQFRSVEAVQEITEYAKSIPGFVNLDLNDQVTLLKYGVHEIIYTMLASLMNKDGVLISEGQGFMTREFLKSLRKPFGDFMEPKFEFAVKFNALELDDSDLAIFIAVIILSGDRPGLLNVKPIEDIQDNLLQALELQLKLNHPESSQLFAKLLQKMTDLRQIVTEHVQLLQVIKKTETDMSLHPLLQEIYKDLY
# Method: Monasnicotinates A, B, C and D were prepared according to Example 3 and Ethanol and ethyl acetate extracts of BCRC 930146-fermented rice were prepared according to Example 7. The binding activity of Monasnicotinates A, B, C and D and ethanol and ethyl acetate extracts of BCRC 930146-fermented rice to PPARγ and PPARα were analyzed using competitive binding assay kits (LanthaScreen TR-FRET PPARγ Binding Assay and Invitrogen PPARα Competitive Binding Assay) according to their instructions. Troglitazone and arachidonic acid were used as reference substances for PPARγ and PPARα ligand, respectively.
# [2] = test system: 3T3-L1 preadipocytes; experiment: 3T3-L1 preadipocyte differentiation, DMI differentiation model; assay type: cell-based; conditions: for triglyceride droplets under inverted microscope: 5 μg/ml, vs DMI control; for TG (%): sample concentration 5 μg/ml, control = 100
# Method: (§1) Preadipocytes were prepared according to the method described by Waki et al., (2007, “The small molecule harmine is an antidiabetic cell-type-specific regulator of PPARγ expression.” Cell Metabolism, 5(5): 357-370) and Huang et al., (2005, “Herbal or natural medicines as modulators of peroxisome proliferator-activated receptors and related nuclear receptors for therapy of metabolic syndrome.” Basic and Clinical Pharmacology and Toxicology, 96: 3-14.). Preadipocytes were cultured in DMEM (Dulbecco's Modified Eagle's Medium-high glucose, Sigma D-7777) containing 10% of fetal bovine serum (FBS) and incubated at 37° C. in a 5% CO2 incubator.
# (§2) Before the differentiation induction experiments, the cells were plated into either 96- or 24-well plates (the concentration of cells in each well was about 2×10^4/cm^2). The plates were incubated for about two days to allow the cells to proliferate to confluence, and then maintained for another two days. The medium was changed to different differentiation media according to different experiments. The day of switching to differentiation medium was designated as day zero.
# The differentiation medium used in DMI differentiation model comprised an three-in-one differentiation inducer (DMI): dexamethasone (Sigma D-4902, dissolved in ethanol to produce a 0.25M stock solution), isobutyl-methylxanthine (Sigma 1-5879, dissolved in DMSO to produce a 0.5M stock solution), and insulin (Sigma I-6634, dissolved in 0.01N HCl to produce a 10 mg/ml stock solution). The final concentrations of dexamethasone, isobutyl-methylxanthine and insulin were 0.25 μM, 0.5 mM and 5 μg/ml, respectively.
# The four test compounds, Monasnicotinates A, B, C and D, were dissolved in DMSO respectively to produce a 5 mg/ml stock solution. One ml of the differentiation medium containing test sample was added to each well of the 24-well 3T3-L1 preadipocyte plates (the final concentration of the sample in each well was 5 μg/ml). The control group was the culture with only the differentiation medium and no sample. The cultures were incubated at 37° C. in a 5% CO2 incubator for three days, and then the medium was replaced by DMEM with 10% FBS. The cultures were maintained until day 9 or day 10, and the amounts of triglyceride in the cells were analyzed. The extents of differentiation (the amounts of oil droplets) were also examined under an inverted microscope.
# (§3) The 96-well plates were rinsed with PBS, and 200 μl of PBS and 5 μl of AdipoRed reagent (Lonze Walkersville, Inc., Walkersville, Md., USA, Catalog No. PT-7009) were added to each well. After 10 to 15 minutes, the plates were read with a spectrofluorometer (Infinite M200) set at an excitation wavelength of 485 nm and an emission wavelength of 572 nm. The fluorescent data of the experiment group was divided by the fluorescent data of the control group to obtain a percentage of induction activity.
# (§4) The 24-well plates were rinsed with PBS, and the cells were washed off with 0.1 ml of 1% Triton λ 100 per well. The cells were then frozen, thawed and centrifuged (10,000 rpm/5 min) and the supernatant were collected. An aliquot of 0.05 ml of the supernatant was analyzed using Triglycerol assay Kit (Audit Diagnostics, Ltd.).
# (§5) The protein amounts were analyzed using Bio-Rad Dc Protein assay reagent (Bio-Rad). The triglyceride concentration was divided by the protein concentration obtained using Bio-Rad Dc Protein assay to calculated the amount (μg) of triglyceride per μg protein. The triglyceride amounts of the experiment groups were divided by those of the control groups to determine the differentiation induction activity of the samples.
# (§6) 3T3-L1 preadipocytes differentiation assay was conduct according to Example 5.
# [3] = test system: PPARγ; experiment: Nuclear PPARγ ELISA in differentiated 3T3-L1 cells; assay type: cell-based; conditions: final sample concentration 5 μg/mL, control: medium only
# Method: Nuclear and cytosolic proteins of the differentiated 3T3-L1 cells were extracted and the nuclear PPARγ and cytosolic adiponectin contents were analyzed using commercial kits.
# (§7) 3T3-L1 cells were incubated and differentiated on petri dish (9 cm) for 9 days and washed with PBS. 1 ml of buffer A working solution (Affymetrix® Nuclear Extraction Kits, Panomics, Inc.; freshly prepared according to the instructions) was added to the petri dish, and the petri dish was placed on ice and shaken for 10 minutes on a shaker. Cells on the petri dish were transferred to a 1.5 ml centrifuge tube and centrifuged at 14,000 rpm for 3 minutes. The supernatant, the cytosol fraction, was collected for further analysis. 0.5 ml of buffer B working solution (Affymetrix® Nuclear Extraction Kits, Panomics, Inc.; freshly prepared according to the instructions) was added to the centrifuge tube to re-suspend the cell pellet and the centrifuge tube was placed on ice and shaken for two hours on a shaker. The centrifuge tube was then centrifuged at 14,000 rpm for 5 minutes. The supernatant, the nucleus fraction, was collected for further analysis.
# Nuclear PPARγ in the nucleus fraction was analyzed using Transcription Factor PPARγ ELISA Kit (Panomics, Inc.) according to the instructions.
# [4] = test system: adiponectin; experiment: Cytosolic adiponectin ELISA in differentiated 3T3-L1 cells; assay type: cell-based, Mouse; conditions: insulin model and DMI model, 5 μg/mL (FIG. 7)
# Method: 3T3-L1 cells were treated with Monasnicotinates A, B, C and D (prepared in Example 3) as described in Example 5. Nuclear and cytosolic proteins of the differentiated 3T3-L1 cells were extracted and the nuclear PPARγ and cytosolic adiponectin contents were analyzed using commercial kits.
# as §7
# Cytosolic adiponectin in the cytosol fraction was analyzed using Quantikine Mouse Adiponectin immunoassay (R&D systems) according to the instructions.
# [5] = test system: LPS-stimulated macrophage cells RAW264.7; experiment: Inhibition of NO production induced by LPS (Griess reagent); assay type: cell-based, murine; conditions: Mus musculus, LPS 1 μg/mL, 24 hours
# Method: (§8) The murine macrophage cell line RAW264.7 (BCRC 60001=ATCC TIB-71) was cultured in Dulbecco's modified Eagle's medium (DMEM, Gibco BRL Life Technologies, Inc.) supplemented with 10% heat inactivated fetal bovine serum (FBS) and incubated at 37° C. in a humidified 5% CO2 atmosphere with a 96-well flat-bottomed culture plate. After 24 hours, the condition medium was replaced with fresh DMEM and FBS. Then the three test compounds, Monasnicotinates A, C and D, (0, 1, 5, 10, and 20 μg/mL) were added respectively in the presence of lipopolysaccharide (LPS, 1 μg/mL; Sigma, Cat no: L-2654), and the plates were incubated at the same condition for 24 hours.
# (§9) The cultured cells were then centrifuged and the supernatants were used for NO production measurement, with a MTT (3-(4,5-dimethylthiazol-2yl)-2,5-diphenyl tetrazolium bromide) assay to determine cell viability. The supernatant was mixed with an equal volume of the Griess reagent (1% sulfanilamide, 0.1% N-(1-naphthyl)ethyl-enediamine dihydrochloride in 2.5% phosphoric acid solution) and incubated for 10 min at room temperature. Nitrite concentration was determined by measuring the absorbance at 540 nm using an ELISA plate reader (μ Quant) (see Mosman, T., 1983, “Rapid colorimetric assay for cellular growth and survival: application to proliferation and cytotoxicity assays.” J. Immunol. Methods, 65: 55-63). The MTT colorimetric assay was modified from that of Mosmann (see Johansson, M., et al., 2002, “Biologically active secondary metabolites from the ascomycete A111-95.” J. Antibiot., 55: 104-106). The test is based upon the selective ability of living cells to reduce the yellow soluble salt, MTT, to a purple-blue insoluble formazan. MTT (Merck; dissolved in phosphate-buffered saline at 5 mg/mL) solution was added onto the attached cells mentioned above (10 μl per 100 μl culture) and incubated at 37° C. for 4 hours. Then, DMSO was added and the amount of colored formazan metabolite formed was determined by absorbance at 550 nm. The optical density of formazan formed in control (untreated) cells was taken as 100% viability.
# [6] = test system: 3T3-L1 preadipocytes; experiment: 3T3-L1 preadipocyte differentiation, insulin differentiation model; assay type: cell-based; conditions: sample concentration 2 μg/ml, control = 100
# Method: as §1, §2
# The differentiation medium used in insulin differentiation model was DMEM with 10% FBS comprising 10 μg/ml of insulin. Differentiation media containing each of the four test compounds, Monasnicotinates A, B, C and D, were added to each well of the 24- or 96-well 3T3-L1 preadipocyte plates (the final concentration of the test compounds in each well is 2 μg/ml). The control group was the culture with only the differentiation medium and no sample. The cultures were incubated at 37° C. in a 5% CO2 incubator for seven days (during the period, the differentiation medium and sample were replaced with fresh ones twice), and then the medium was replaced by DMEM with 10% FBS. The cultures were maintained until day 9 or day 10. The cells of the experiment groups and control groups at day 9 or day 10 were stained with AdipoRed and the concentrations of triglyceride were analyzed.
# as §3, §4, §5, §6
# [7] = test system: RAW264.7; experiment: MTT cell viability assay; assay type: cell-based, murine
# Method: as §8, §9
# [8] = test system: LPS-stimulated macrophage cells RAW264.7; conditions: literature value; read-out: IC50, production of NO by LPS-stimulated RAW264.7 (reported, Motai and Kitanaka 2005); cited from earlier work
SMILES,pIC50 [1],triglyceride droplets under inverted microscope [2],TG (%) [2],PPARγ expression (% of control) ([3]; DMI model),PPARγ expression (% of control) ([3]; Insulin model),concentration of cytosolic adiponectin [4],IC50 [5],AdipoRed (%) [6],TG (%) [6],"Cytotoxicity (MTT assay) ([7]; 1-10 μg/mL, with LPS treatment for 24 hours)",Cytotoxicity (MTT assay) ([7]; at 10 μg/mL),pIC50 [8],pIC50 [5],"Cytotoxicity (MTT assay) ([7]; 1-20 μg/mL, with LPS treatment for 24 hours)"
"C/C=C/c1cc(/C=C(\CC(=O)CCCCC)C(C)=O)c(C(=O)OC)cn1 [Monasnicotinate A, methyl-4-((E)-2-acetyl-4-oxonon-1-enyl)-6-((E)-prop-1-enyl)nicotinate]",4.38,more triglyceride droplets than the control culture,159%,100 ± 7 % of control,139 ± 1 % of control,increase,5.72 µg/mL and 16 µM,159%,128%,did not show any significant cytotoxicity,,,,
"C/C=C/c1cc(/C=C(\CC(=O)CCCCCCC)C(C)=O)c(C(=O)OC)cn1 [Monasnicotinate C, methyl-4-((E)-2-acetyl-4-oxoundec-1-enyl)-6-((E)-prop-1-enyl)nicotinate]",4.74,more triglyceride droplets than the control culture,132%,115 ± 1 % of control,333 ± 15 % of control,increase,,209%,145%,,significant cytotoxic effect,,,
"O=c1c(O)c(-c2ccc(O)c(O)c2)oc2cc(O)cc(O)c12 [quercetin, reference compound]",,,,,,,,,,,,4.57,4.58,
"CCCCCC(=O)C/C(=C\c1cc(CCC)ncc1C(=O)OC)C(C)=O [Monasnicotinate D, (E)-methyl-4-(2-acetyl-4-oxonon-1-enyl)-6-propylnicotinate]",4.19,more triglyceride droplets than the control culture,204%,166 ± 5 % of control,424 ± 19 % of control,increase,9.4 µg/mL and 24.8 µM,247%,169%,,,,,did not show any significant cytotoxicity
"C/C=C/c1cc(/C=C(\CC(=O)CCCCC)C(C)=O)c(C(=O)OCC)cn1 [Monasnicotinate B, ethyl-4-((E)-2-acetyl-4-oxonon-1-enyl)-6-((E)-prop-1-enyl)nicotinate]",4.96,more triglyceride droplets than the control culture,175%,147 ± 2 % of control,237 ± 9 % of control,increase,,287%,132%,,,,,

# From patent US9474774B2, “Pyridine alkaloids, preparation process thereof, and the uses of the pyridine alkaloids” (FOOD INDUSTRY RESEARCH AND DEVELOPMENT INSTITUTE, priority 2010, dated 2016)
